{
  "source": "patent US12048705B2",
  "about": "“Immunoablative therapies” (AVM Biotechnology, LLC, priority 2018, dated 2024)",
  "key": {"[1]": {"settings": "human, in vivo; cited from earlier work"}, "B lymphocytes": {"test_system": "B lymphocytes", "test": "Treatment of patients with autoimmune diseases (paper examples 5 and 9)", "assay_type": "in vivo, human", "settings": "acute high dose, patient with an autoimmune disease", "procedure": "Acute high dose prednisone doses range from about 19 mg/kg to about 150 mg/kg, with doses between about 56 mg/kg and about 112 mg/kg being preferred, with a repeat (second) administration of this dose 24 hours later and an optional repeat (third) administration of this dose 48-72 hours after the initial dose."}, "[2]": {"settings": "in vivo; cited from earlier work"}, "[3]": {"test_system": "spleen weights, germinal centers", "settings": "mice, po daily for 13 weeks; cited from earlier work"}, "[4]": {"test": "A20 B cell lymphoma mouse model, toxicity (body weight, deaths)", "settings": "15 mg/kg dexamethasone base HED", "method": "(§1) In the present study, mice were housed, inoculated and treated in the same way as reported in the Bascus et al. (2016) study. […] Tumor volume (mm^3) was measured every 2-3 days."}, "A20 B cell lymphoma": {"test_system": "A20 B cell lymphoma", "test": "A20 B cell lymphoma mouse model, tumor volume", "assay_type": "in vivo", "settings": "15 mg/kg HED on days 7, 10, 18, 23, 24, 28, 35, 42", "method": "as §1"}, "lymphocytes, neutrophils": {"test_system": "lymphocytes, neutrophils", "test": "Rat complete blood count 48 hours after IV or PO dexamethasone", "assay_type": "in vivo", "settings": "male Lewis rats", "procedure": "FIG. 7. […] Data in FIGS. 3, 4, and 6 are from the same rats. […] Oral (left) and IV (right) doses were administered 1×48 hours before blood withdrawal."}, "[5]": {"test_system": "peripheral blood lymphocytes", "test": "Repeat of Hinrichs dexamethasone dosing, peripheral blood lymphocytes by flow cytometry", "assay_type": "in vivo", "design": "reduction of Tregs / reduction of NK cells / reduction of CD3+ T lymphocytes / reduction of CD3+CD4+ T lymphocytes / reduction of CD3+CD8 T lymphocytes: concentration or dose not given beside the values"}, "[6]": {"test": "A20 tumor bearing mice, cell counts by CBC analyzer and chemistry (Table 2)", "settings": "A20 tumor bearing male mice, 15 mg/kg HED on day 28, animals 12 and 7"}, "[7]": {"test_system": "multiple myeloma and other cancer cell lines", "test": "Direct tumor killing of cancer cell lines", "assay_type": "cell-based", "settings": "about 1.6 mg/kg HED in a 48 hour period; maintained but not increased up to about 12 mg/kg HED"}, "hematopoietic stem cells": {"test_system": "hematopoietic stem cells", "test": "Live hematopoietic stem cells in naive mice 48 hours after treatment", "settings": "high doses"}, "[8]": {"test": "Clinical chemistries in mice after acute oral doses", "assay_type": "in vivo, mouse"}, "[9]": {"settings": "HED, cited from earlier work"}, "[10]": {"settings": "mouse, in vivo, 15 mg/kg"}, "germinal centers": {"test_system": "germinal centers", "test": "Germinal centers in mouse spleen, FITC-PNA immunofluorescence", "assay_type": "in vivo", "settings": "HED", "procedure": "FIG. 2. […] A graph of column plots of average Germinal Center staining intensity measured using immunofluorescent staining of fresh thick spleen sections stained with FITC-PNA is shown. Immunofluorescent intensity was calculated using thresholding and MetaMorph Image Analysis. Columns are average plus SEM.\nThe spleens were removed, weighed wet, and then fixed in 10% formalin. Subsequently the spleens were sectioned via proprietary methods and then incubated with FITC-PNA at 4 degC for 24 hours, washed, placed on slides and immunofluorescent images were captured. Metamorph software was used to quantify the immunofluorescent signal."}, "IL-2, IL-15, IL-6": {"test_system": "IL-2, IL-15, IL-6", "settings": "oral 3 mg/kg, 48 hours", "procedure": "Blood was drawn before drug treatment and 48 hours post-treatment for CBC analysis and flow cytometry to determine lymphocyte and other blood cell populations. Serum was analyzed for cytokine levels."}, "[11]": {"test": "Double-blind controlled horse trial, adverse effects", "assay_type": "in vivo", "settings": "acute high dose; out to 70 days"}, "[12]": {"test_system": "marginal zone and germinal centers of the spleen", "test": "Rat spleen marginal zone width (H&E) and germinal center area (BCL-6 staining)", "assay_type": "in vivo", "settings": "IV or PO, 48 hours", "method": "Column plots of the area per spleen of BCL-6 staining of 5 micron fixed spleen sections as a measure of germinal center numbers given as average per section are shown.\nFormalin-fixed spleens were cross-sectioned in 5 pieces, trimmed and embedded in paraffin, sectioned and stained with hematoxylin and eosin (H&E). Measurements of the periarteriolar lymphoid sheath (PAL) diameter and the width of the marginal zone (MZ) in areas of white pulp that had PAL with the greatest diameter were measured using an ocular micrometer. BCL-6 immunohistochemical staining in rat spleens was evaluated to determine GC area using automated image analysis methods."}, "[13]": {"test_system": "peripheral blood lymphocytes", "test": "Mouse complete blood count and flow cytometry 24-48 hours after oral dexamethasone", "from_the_text": "CD3 and CD4 positive lymphocytes. […] Relative counts/ul=flow cytometry and complete blood count combined. […] Doses are shown as HED (human equivalent dose). A one-way ANOVA followed by Tukey's test was incorporated to determine statistical significance between the treatment groups; * p<0.05, ** p<0.01, *** p<0.001.\nTreg lymphocytes were identified by being CD3+CD4+CD25+FoxP3+. Relative counts/ul=flow cytometry and complete blood counts combined. […] Doses are shown as HED (human equivalent dose). A one-way ANOVA followed by post-hoc Tukey's test was incorporated to determine statistical significance between the treatment groups; * p<0.05, ** p<0.01.\nNK cells were identified by being CD3−CD49b+. B lymphocytes were identified by being CD3−B220+. Relative counts/ul=flow cytometry and complete blood counts combined. […] Doses are shown as HED (human equivalent dose). A one-way ANOVA followed by post-hoc Tukey's test was incorporated to determine statistical significance between the treatment groups; * p<0.05, ** p<0.01; *** p<0.001.\nCells/ul=absolute numbers obtained from complete blood counts (CBC). […] Doses are shown as HED (human equivalent dose).\nCells/ul=absolute numbers obtained from CBC. […] Doses are shown as HED (human equivalent dose)."}, "[14]": {"test_system": "peripheral blood lymphocytes", "method": "Each patient's pre-treatment values are connected to post-treatment values by a connecting line.\nEach patient's pre-treatment values are connected to post-treatment values by a connecting line. […] HSCs are identified by being CD34+CD38−.\nBlood was drawn before drug treatment and 48 hours post-treatment for CBC analysis and flow cytometry to determine lymphocyte and other blood cell populations. […] For one patient, pre-treatment CBCs were not drawn and thus normalized flow cytometry data is shown for only 3 patients."}, "[15]": {"settings": "mouse, in vivo", "method": "To another group of mice Cy was administered IP at 166 mg/kg (HED 500 mg/m2) on day −5 and day −4 and Fludarabine 10 mg/kg (HED 30 mg/m2) on days −5, −4, −3, −2."}, "[16]": {"settings": "oral, 12 mg/kg HED group vs placebo, 24-48 hours"}},
  "note": "Several values for one entry are separate records, joined by “and”; a condition that tells them apart may be missing. Identical values can stand only once. Like-named read-outs stand apart in the source and are kept apart here. Marks after values point to notes of the source that are not given here.",
  "data": [
    {"compound": "alemtuzumab: anti-CD52 lymphocyte depletional agent", "values": [
      {"measurement": "patients who developed (primarily thyroid) autoimmunity", "setting": "[1]", "value": "two thirds"}
    ]},
    {"compound": "C[C@]12C=CC(=O)C=C1CC[C@@H]1[C@@H]2C(=O)C[C@@]2(C)[C@H]1CC[C@]2(O)C(=O)CO", "note": "[prednisone]", "values": [
      {"measurement": "reduction of B lymphocyte numbers", "setting": "B lymphocytes", "value": "greater than 90%"},
      {"measurement": "reduction of memory B cell populations", "setting": "B lymphocytes", "value": "greater than 90%"},
      {"measurement": "biologic half-life", "setting": "[2]", "value": "about 20 hours"},
      {"measurement": "dose above which spleen weights or germinal centers are significantly impacted", "setting": "[3]", "value": "over 2.5 mg/kg"}
    ]},
    {"compound": "C[C@@H]1C[C@H]2[C@@H]3CCC4=CC(=O)C=C[C@]4(C)[C@@]3(F)[C@@H](O)C[C@]2(C)[C@@]1(O)C(=O)CO", "note": "[dexamethasone]", "values": [
      {"measurement": "mice that died from the treatment", "setting": "[4]", "value": "no mice died"},
      {"measurement": "efficacy in terms of tumor volume control compared with CHOP", "setting": "A20 B cell lymphoma", "value": "greater than 1 cycle of CHOP, but not quite as effective as 2 cycles of CHOP"},
      {"measurement": "RBCs, platelets, Hct, HgB", "setting": "lymphocytes, neutrophils", "value": "not affected"},
      {"measurement": "neutrophil number", "setting": "lymphocytes, neutrophils; all doses", "value": "increased by all doses"},
      {"measurement": "CD3+ T lymphocytes, live events", "setting": "[5]; intraperitoneal 10 mg/kg (HED 0.81 mg/kg) on day −6, −4, −2, vehicle 3370", "value": 2441, "unit": "live events"},
      {"measurement": "CD3-CD19+ B lymphocytes in the peripheral blood, live events by flow cytometry", "setting": "[5]; intraperitoneal 10 mg/kg (HED 0.81 mg/kg) on day −6, −4, −2, vehicle control 10680", "value": 3733, "unit": "live events"},
      {"measurement": "reduction of B lymphocytes", "setting": "[5]; intraperitoneal 10 mg/kg (HED 0.81 mg/kg) on day −6, −4, −2, vs vehicle, significant", "value": 65, "unit": "%"},
      {"measurement": "reduction of CD3+ T lymphocytes", "setting": "[5]; same dosing, non-significant", "value": 33, "unit": "%"},
      {"measurement": "reduction of CD3+CD4+ T lymphocytes", "setting": "[5]; same dosing, non-significant", "value": 50, "unit": "%"},
      {"measurement": "reduction of CD3+CD8 T lymphocytes", "setting": "[5]; same dosing, non-significant", "value": 3, "unit": "%"},
      {"measurement": "reduction of NK cells", "setting": "[5]; same dosing, non-significant", "value": 17, "unit": "%"},
      {"measurement": "reduction of Tregs", "setting": "[5]; same dosing, non-significant", "value": 65, "unit": "%"},
      {"measurement": "CD3+CD4+CD25+FoxP3+ Tregs, live events", "setting": "[5]; same dosing, vehicle 198", "value": 70, "unit": "live events"},
      {"measurement": "CD3+CD8 T lymphocytes, live events", "setting": "[5]; same dosing, vehicle 1318", "value": 1277, "unit": "live events"},
      {"measurement": "CD3+CD4+ T lymphocytes, live events", "setting": "[5]; same dosing, vehicle 1779", "value": 902, "unit": "live events"},
      {"measurement": "BAS %", "setting": "[6]", "value": 0, "unit": "%"},
      {"measurement": "EOS %", "setting": "[6]", "value": 0, "unit": "%"},
      {"measurement": "Meta %", "setting": "[6]", "value": 0, "unit": "%"},
      {"measurement": "BASCT", "setting": "[6]; 15 mg/kg", "value": "38 and 57"},
      {"measurement": "CA", "setting": "[6]; 15 mg/kg", "value": "9.9 and 10.0"},
      {"measurement": "EOSCT", "setting": "[6]; 15 mg/kg", "value": "158 and 92"},
      {"measurement": "LYM %", "setting": "[6]; 15 mg/kg", "value": "30% and 53%"},
      {"measurement": "MON %", "setting": "[6]; 15 mg/kg", "value": "0% and 3%"},
      {"measurement": "NEU %", "setting": "[6]; 15 mg/kg", "value": "70% and 44%"},
      {"measurement": "NEUCT", "setting": "[6]; 15 mg/kg", "value": "550 and 280"},
      {"measurement": "TP", "setting": "[6]; 15 mg/kg", "value": "5.5 and 5.4"},
      {"measurement": "WBC", "setting": "[6]; 15 mg/kg", "value": "860 and 1150"},
      {"measurement": "direct tumor killing", "setting": "[7]", "value": "about 50%"},
      {"measurement": "number of live hematopoietic stem cells", "setting": "hematopoietic stem cells", "value": "did not significantly alter"},
      {"measurement": "clinical chemistry levels including cholesterol and total protein", "setting": "[8]; acute oral doses, HED 6-12 mg/kg", "value": "do not elevate clinical chemistry levels out of normal range"},
      {"measurement": "glucose level", "setting": "[8]; after acute high dose", "value": "not elevated over the normal range"},
      {"measurement": "lowest lethal dose", "setting": "[9]; healthy mice", "value": 114, "unit": "mg/kg"},
      {"measurement": "lowest lethal dose", "setting": "[9]; tumor bearing mice", "value": 43, "unit": "mg/kg"},
      {"measurement": "CRE", "setting": "[10]", "value": 0.5},
      {"measurement": "GGT", "setting": "[10]", "value": 0},
      {"measurement": "NRBC", "setting": "[10]", "value": "0*"},
      {"measurement": "acute dose from which germinal centers are reduced", "setting": "germinal centers", "value": "≥ 6", "unit": "mg/kg"},
      {"measurement": "acute dose from which germinal centers are reduced", "setting": "germinal centers; listed as Dexamethasone", "value": "≥ 3", "unit": "mg/kg"},
      {"measurement": "IL-6 level", "setting": "IL-2, IL-15, IL-6", "value": "not elevated in any patient"},
      {"measurement": "patients with increased serum IL-2 and/or IL-15 levels", "setting": "IL-2, IL-15, IL-6", "value": 100, "unit": "%"},
      {"measurement": "adverse side effects", "setting": "[11]", "value": "no adverse side effects were observed"},
      {"measurement": "dose of maximal inhibition of germinal center area", "setting": "[12]", "value": 12.9, "unit": "mg/kg HED"},
      {"measurement": "dose of maximal inhibition of marginal zone", "setting": "[12]", "value": 12.9, "unit": "mg/kg HED"},
      {"measurement": "reduction in CD4+, CD8+, Tregs and B cells population", "setting": "[13]; naive mouse and rat models, high doses, 48 hours after administration, preliminary", "value": "~98", "unit": "%"},
      {"measurement": "HED dose giving almost complete lymphoablation", "setting": "[13]; normal mice, oral", "value": "greater than 12 mg/kg"},
      {"measurement": "absolute neutrophils", "setting": "[13]; oral HED 3-17.5 mg/kg, 24-48 hours", "value": "does not affect"},
      {"measurement": "absolute RBCs and platelets", "setting": "[13]; oral HED 3-17.5 mg/kg, 48 hours", "value": "does not affect"},
      {"measurement": "reduction in B lymphocytes (CD3−B220+)", "setting": "[13]; [16]", "value": 83, "unit": "%"},
      {"measurement": "reduction in CD3+ T lymphocytes", "setting": "[13]; [16]", "value": 65, "unit": "%"},
      {"measurement": "reduction in CD4+ T lymphocytes", "setting": "[13]; [16]", "value": 75, "unit": "%"},
      {"measurement": "reduction in CD8+ T lymphocytes", "setting": "[13]; [16]", "value": 56, "unit": "%"},
      {"measurement": "reduction in NK cells (CD3−CD49b+)", "setting": "[13]; [16]", "value": 87, "unit": "%"},
      {"measurement": "reduction in Tregs (CD3+CD4+CD25+FoxP3+)", "setting": "[13]; [16]", "value": 78, "unit": "%"},
      {"measurement": "reduction in absolute lymphocyte count", "setting": "[13]; oral, C57B1 male mice vs placebo, 24 to 48 hours, dose group not stated", "value": 84, "unit": "%"},
      {"measurement": "patients showing lymphocytosis", "setting": "[14]; 3 mg/kg HED", "value": 50, "unit": "%"},
      {"measurement": "hematopoietic stem cells (CD34+CD38−)", "setting": "[14]; human, in vivo, po, 3 mg/kg", "value": "spared"},
      {"measurement": "body weight as a general measure of toxicity", "setting": "[15]", "value": "did not impact body weight"}
    ]}
  ]
}
